From patent publication US12258547B2, “Cell culture plate, method for preparing thereof and method for detecting a substance” (UPM-Kymmene Corporation, priority 2019, dated 2025)
Where a name gives a salt, the structure may show the parent alone.

Tests used:
SH-SY5Y cells = assay: SDS permeability (indirect): cell viability observed microscopically on both sides of barrier; type: cell-based, Human; conditions: 0.4 mg/ml SDS dosed left
Experimental: Barrier permeability to chemicals was tested by visual inspection using 0.2% Trypan blue, by quantitative measurement using 1 mg/ml fluorescein solution, and by indirect method using sodium dodecyl sulfate (SDS), which is a toxic compound. SDS is a detergent that is known to be toxic to all cell types. […] Circular shaped barriers were prepared in 6-well plates, and straight wall shaped barriers in 24-well plates. SH-SY5Y cells were seeded to the 24-well plate in both sides of the barriers in their normal cell culture medium at the density of 325 000 cells/50 μl. HepG2 cells were seeded to the 6-well plate both inside the barrier circles and outside of them at the density of 107 500 cells/50 μl. Next day 0.4 mg/ml SDS stock was prepared and the cells were exposed to it: SH-SY5Y cells growing on the 24 well plate: 100 μl of 0.4 mg/ml SDS solution was pipetted to the left side of the barrier. 100 μl medium without SDS was pipetted to the right side of the barrier. […] The cell viability was observed microscopically.

HepG2 cells = assay: SDS permeability (indirect): cell viability observed microscopically inside and outside barrier circle; type: cell-based, Human; conditions: 0.4 mg/ml SDS dosed inside circle
Experimental: Barrier permeability to chemicals was tested by visual inspection using 0.2% Trypan blue, by quantitative measurement using 1 mg/ml fluorescein solution, and by indirect method using sodium dodecyl sulfate (SDS), which is a toxic compound. SDS is a detergent that is known to be toxic to all cell types. […] Circular shaped barriers were prepared in 6-well plates, and straight wall shaped barriers in 24-well plates. SH-SY5Y cells were seeded to the 24-well plate in both sides of the barriers in their normal cell culture medium at the density of 325 000 cells/50 μl. HepG2 cells were seeded to the 6-well plate both inside the barrier circles and outside of them at the density of 107 500 cells/50 μl. Next day 0.4 mg/ml SDS stock was prepared and the cells were exposed to it: HepG2 cells growing on the […]: 400 μl of 0.4 mg/ml SDS solution was pipetted inside the circle, and 400 μl of medium without SDS […] outside of the circle. […] The cell viability was observed microscopically.

BJ cells [1] = assay: Previous cytotoxicity data on BJ cells obtained without barriers; type: cell-based; conditions: Homo sapiens, dosed without barriers
From the text: The aim was to detect dose-dependent effect by using a concentration that was expected to kill about half of the cells and a concentration two times bigger than that.

BJ cells [2] = assay: Leakage Test 1: 3D-printed barriers, BJ cells outside, chemical dosed inside, WST-1 and microscopy; type: cell-based, Human; conditions: SDS 80 and 40 μg/ml, amitriptyline 20 and 10 μg/ml dosed inside barrier, 24 hrs
Experimental: It was investigated whether the 3D-printed GrowDex barriers are suitable for their intended use, i.e. to prevent the movement of cells across the barrier but allow the passage of chemicals. In order to test this, BJ cells were seeded outside of the barrier, and chemicals (SDS and Amitriptyline hydrochloride), which are known to be toxic to BJ cells, were applied inside of the barrier. After 24 hrs incubation it was evaluated microscopically whether cells had stayed outside of the barriers and whether the chemical dosed in the middle of the barrier killed the cells outside of the barrier. For quantification of cell viability, WST-1 assay was used. WST-1 assay was selected as it was used previously successfully with manually constructed barriers.
12-Well Plates: 400 μl BJ suspension (100 000 cells/ml) was seeded outside of the barriers (→altogether 40 000 BJ cells), and 100 μl BJ cell culture medium was pipetted inside of the barriers.
24-Well Plates: 200 μl of BJ suspension (100 000 cells/ml) was seeded outside of the barriers (→altogether 20 000 BJ cells), and 50 μl BJ cell culture medium was pipetted inside of the barriers. […]
The plates were incubated for 2.5 hrs before absorbance measurement at 450 nm. The absorbance was measured using multipoint measurement with 49 reads/well in 24-well plates and 81 reads/well in 12-well plates.

[3] = Leakage Test 2: 3D-printed 1.5% GrowDex barriers, BJ cells outside, chemical dosed inside, WST-1; type: cell-based, Human; conditions: human; for viability at 24 h, 100 μg/ml: 100 μg/ml dosed into other side of barrier; for viability at 24 h, 100 μg/ml / viability at 24 h, 200 μg/ml: read-out: Viability % of Control; for viability at 24 h, 200 μg/ml: 200 μg/ml dosed into other side of barrier
Experimental: (§1) For this purpose, we • decreased the cell number from the 40 000 cells/well that was used in Test 1, to 20 000 cells/well • increased the Amitriptyline concentrations from 10 and 20 μg/ml used in Test 1 to 100 and 200 μg/ml, and the SDS concentrations from 40 and 80 μg/ml used in Test 1 to 100 and 200 μg/ml. [By decreasing cell number and increasing chemical concentration it was aimed to increase the sensitivity of the test, and expect to obtain more (measurable/visible) impacts on cells]. • included following blanks: • 1.5% GrowDex barrier on poly-D-lysine coated wells in BJ cell culture medium and WST-1, but no cells • 1.5% GrowDex barrier in MEM, no coating, no cells • 1.5% GrowDex barrier in PBS, no coating, no cells • In addition, the number of measurements/well in the multipoint absorbance reading was increased from 81 to 225 reads/well in order to get denser coverage of the well.
(§2) 1.5% GrowDex barriers consisting of four layers, were printed on a 12-well plate. For more details on 3D-printing, see Appendix 1. After construction, the barriers were left to dry for 1 hr at room temperature, after which they were covered with MEM. The plate was sealed with parafilm and stored at 4° C. until used.
(§3) The next day after construction of the barriers, BJ fibroblasts were seeded: 400 μl BJ suspension (50 000 cells/ml) was seeded outside of the barriers (→altogether 20 000 BJ cells), and 100 μl BJ cell culture medium was pipetted inside of the barriers. The cells were let to grow for 24 hrs before exposure.
(§4) 2.0 mg/ml stocks were prepared from both Amitriptyline and SDS in BJ cell culture medium with 5% FBS. The stocks were first diluted 1:10 to obtain […] chemical dilution. And the 200 μg/ml chemical dilution was further diluted 1:2 to obtain 100 μg/ml chemical dilution. These dilutions, i.e. 200 and 100 μg/ml were used in the exposure.
(§5) The medium was removed carefully from both inside and outside of the barriers. 400 μl BJ cell culture medium with 5% FBS was pipetted outside of the barrier (where the cells had been seeded on previous day). 100 μl chemical dilution (SDS or Amitriptyline) was pipetted inside of the barriers. The exposure time was 24 hrs.
(§6) After 24 hrs chemical exposure, 10 μl WST-1 reagent was pipetted inside of the barriers, and 100 μl outside of the barriers. The plate was incubated for 30 min, 1.5 hrs and 2.0 hrs before absorbance measurement at 450 nm. The absorbance was measured using multipoint measurement with 225 reads/well.
(§7) In an attempt to quantify the cell viability after different treatments, the mean±STDEV absorbances were calculated using two rows of absorbances that were measured next to the outer edges of the wells. This area was assumed to be outside of the barrier.

BJ fibroblasts = assay: as above; type: cell-based, Human; conditions: 24 hrs, 450 nm
Experimental: as §1, §2, §3, §4, §5, §6, §7

[4] = 0.2% Trypan blue permeability through GrowDex barrier, visual inspection; type: physicochemical; conditions: 0.2% dosed to left side
Experimental: Barriers were prepared in 6-well (circular shaped barriers) and in 24-well (straight wall shaped barriers) plates, and allowed to dry overnight. The barriers were high enough to prevent passage and mixing of the solutions over them. All passage and mixing had to occur through the barriers. Barrier permeability to chemicals was tested by visual inspection using 0.2% Trypan blue, by quantitative measurement using 1 mg/ml fluorescein solution, and by indirect method using sodium dodecyl sulfate (SDS), which is a toxic compound. 400 μl Dulbecco's PBS/well was added to the 24-well plates. The plates were incubated for 1 hour at room temperature to moisturize the GrowDex barrier. The DPBS was removed and replaced with 100 μl 0.2% Trypan blue on the left side of the barrier, and with an equal amount of DPBS on the right side of the barrier.

[5] = 100 μg/ml dosed into other side of barrier
[6] = 200 μg/ml dosed into other side of barrier

Q: Which results are given for `CCCCCCCCCCCCOS(=O)(=O)[O-].[Na+]` [SDS, Sodium Dodecyl Sulfate]?
A: cell viability, left side of the barrier (dosed side) (SH-SY5Y cells; 24 hours): all SH-SY5Y cells in the left side of the barrier were dead; cell viability, right side of the barrier (SH-SY5Y cells; 24 hours): cells were dead next to the barrier, but not all over the well; cell viability, both compartments (SH-SY5Y cells; 48 hours): all cells were dead in both compartments; cell viability inside the GrowDex circle (dosed side) (HepG2 cells; 24 hours): all HepG2 cells were dead inside the GrowDex circle; cell viability outside of the circle (HepG2 cells; 24 hours): also outside of the circle next to the GrowDex barrier; HepG2 cells died outside of the circle (HepG2 cells; 48 hours): about 95%; IC50 (BJ cells [1]): 47 µg/mL; toxicity to BJ cells across 3D-printed barrier (BJ cells [2]): not toxic; viability at 24 h, 100 μg/ml [3]: 106%; viability at 24 h, 200 μg/ml [3]: 118%; Mean absorbance, stdev (BJ fibroblasts; [5]): 1.072 ± 0.322; Mean absorbance, stdev (BJ fibroblasts; [6]): 1.189 ± 0.406

Q: Which results are given for `Cc1cc(-c2ccc(/N=N/c3c(S(=O)(=O)O)cc4cc(S(=O)(=O)O)cc(N)c4c3O)c(C)c2)ccc1/N=N/c1c(S(=O)(=O)O)cc2cc(S(=O)(=O)O)cc(N)c2c1O` [Trypan Blue]?
A: distribution of blue color ([4]; after six hours): absorbed most of the blue color; distribution of blue color ([4]; next day): evenly distributed on the both sides of the barrier

Q: With `CN(C)CCC=C1c2ccccc2CCc2ccccc21` [Amitriptyline hydrochloride, 3-(10,11-dihydro-5H-dibenzo[a,d]cycloheptene-5-ylidene)-N,N-dimethylpropan-1-amine] as the compound, how does the IC50 (BJ cells [1]) read?
A: 12 µg/mL

Q: What about the “toxicity to BJ cells across 3D-printed barrier” value (BJ cells [2]) of the same compound?
A: not toxic

Q: What about the viability at 24 h, 100 μg/ml [3] of the same compound?
A: 90%

Q: What about the cytotoxicity at 24 h, 100 μg/ml ([3]; 100 μg/ml exposure, across barrier, read-out: reduction in BJ viability) of the same compound?
A: 10%

Q: And the viability at 24 h, 200 μg/ml [3]?
A: 84%

Q: And the cytotoxicity at 24 h, 200 μg/ml ([3]; 200 μg/ml exposure, across barrier, read-out: reduction in BJ viability)?
A: 16%

Q: And the “Mean absorbance, stdev” value (BJ fibroblasts; [5])?
A: 0.911 ± 0.283

Q: What about the “Mean absorbance, stdev” value (BJ fibroblasts; [6]) of the same compound?
A: 0.844 ± 0.318
